Here are results for ten molecules from US8148391B2 (Cephalon, Inc., priority 2006, dated 2012).

Test [1] concerns the target T1, baculovirus-expressed ALK (Homo sapiens, UniProt Q9UM73).
T1 construct: host or cells: baculovirus expression system
Briefly: ALK Kinase Assay (ELISA-type, time-resolved fluorescence). The test is classed as biochemical. In a few lines:
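Plates coated with phospholipase C-γ substrate (10 μg/mL in TBS); reaction started with 30 ng/ml ALK and run 15 min at 37° C. Phosphorylated substrate detected with Eu-N1-labeled PT66 antibody. IC50 from sigmoidal variable-slope fit of percent inhibition vs log concentration.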
In general terms: An ELISA detects its analyte on a solid surface through an enzyme-linked reagent.

The target in test [2] is T2, c-Met (cytoplasmic domain) (Homo sapiens, UniProt P08581).
T2 construct: 10 ng/mL c-Met (cytoplasmic domain, Invitrogen Corporation #PV3143); purchased Invitrogen Corporation PV3143
Briefly: c-Met Kinase Assay (same methods as for ALK, with modifications). In kind it is biochemical. In a few lines: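 Europium-labeled PT66 antibody (Eu-N1) detects substrate phosphorylation on wells coated with phospholipase C-γ at 10 μg/mL. The kinase, the cytoplasmic domain of c-Met at 10 ng/mL, starts the reaction, which proceeds 15 minutes at 37° C.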

Setting [3] is: ALK kinase inhibition, 1 μM ATP, read-out: ALK Activity.
Setting [4] is: c-Met kinase inhibition, 1 μM ATP, read-out: cMet Activity.
Where [5] appears, read: 1 μM ATP (Km level), read-out: ALK Activity (ALK Kinase Inhibition, IC50).
Where [6] appears, read: 1 μM ATP (Km level), read-out: cMet Activity (c-Met Kinase Inhibition, IC50).
The mark [7] stands for this setting: ALK kinase inhibition, 1 μM ATP (Km level), read-out: ALK Activity.
[8] abbreviates: c-Met kinase inhibition, 1 μM ATP (Km level), read-out: cMet Activity.

Molecules are shown by their SMILES. Where two headings read alike, the source gives them in different places. Bounds are passed on as bounds.

T1 sequence (Q9UM73 19-1620): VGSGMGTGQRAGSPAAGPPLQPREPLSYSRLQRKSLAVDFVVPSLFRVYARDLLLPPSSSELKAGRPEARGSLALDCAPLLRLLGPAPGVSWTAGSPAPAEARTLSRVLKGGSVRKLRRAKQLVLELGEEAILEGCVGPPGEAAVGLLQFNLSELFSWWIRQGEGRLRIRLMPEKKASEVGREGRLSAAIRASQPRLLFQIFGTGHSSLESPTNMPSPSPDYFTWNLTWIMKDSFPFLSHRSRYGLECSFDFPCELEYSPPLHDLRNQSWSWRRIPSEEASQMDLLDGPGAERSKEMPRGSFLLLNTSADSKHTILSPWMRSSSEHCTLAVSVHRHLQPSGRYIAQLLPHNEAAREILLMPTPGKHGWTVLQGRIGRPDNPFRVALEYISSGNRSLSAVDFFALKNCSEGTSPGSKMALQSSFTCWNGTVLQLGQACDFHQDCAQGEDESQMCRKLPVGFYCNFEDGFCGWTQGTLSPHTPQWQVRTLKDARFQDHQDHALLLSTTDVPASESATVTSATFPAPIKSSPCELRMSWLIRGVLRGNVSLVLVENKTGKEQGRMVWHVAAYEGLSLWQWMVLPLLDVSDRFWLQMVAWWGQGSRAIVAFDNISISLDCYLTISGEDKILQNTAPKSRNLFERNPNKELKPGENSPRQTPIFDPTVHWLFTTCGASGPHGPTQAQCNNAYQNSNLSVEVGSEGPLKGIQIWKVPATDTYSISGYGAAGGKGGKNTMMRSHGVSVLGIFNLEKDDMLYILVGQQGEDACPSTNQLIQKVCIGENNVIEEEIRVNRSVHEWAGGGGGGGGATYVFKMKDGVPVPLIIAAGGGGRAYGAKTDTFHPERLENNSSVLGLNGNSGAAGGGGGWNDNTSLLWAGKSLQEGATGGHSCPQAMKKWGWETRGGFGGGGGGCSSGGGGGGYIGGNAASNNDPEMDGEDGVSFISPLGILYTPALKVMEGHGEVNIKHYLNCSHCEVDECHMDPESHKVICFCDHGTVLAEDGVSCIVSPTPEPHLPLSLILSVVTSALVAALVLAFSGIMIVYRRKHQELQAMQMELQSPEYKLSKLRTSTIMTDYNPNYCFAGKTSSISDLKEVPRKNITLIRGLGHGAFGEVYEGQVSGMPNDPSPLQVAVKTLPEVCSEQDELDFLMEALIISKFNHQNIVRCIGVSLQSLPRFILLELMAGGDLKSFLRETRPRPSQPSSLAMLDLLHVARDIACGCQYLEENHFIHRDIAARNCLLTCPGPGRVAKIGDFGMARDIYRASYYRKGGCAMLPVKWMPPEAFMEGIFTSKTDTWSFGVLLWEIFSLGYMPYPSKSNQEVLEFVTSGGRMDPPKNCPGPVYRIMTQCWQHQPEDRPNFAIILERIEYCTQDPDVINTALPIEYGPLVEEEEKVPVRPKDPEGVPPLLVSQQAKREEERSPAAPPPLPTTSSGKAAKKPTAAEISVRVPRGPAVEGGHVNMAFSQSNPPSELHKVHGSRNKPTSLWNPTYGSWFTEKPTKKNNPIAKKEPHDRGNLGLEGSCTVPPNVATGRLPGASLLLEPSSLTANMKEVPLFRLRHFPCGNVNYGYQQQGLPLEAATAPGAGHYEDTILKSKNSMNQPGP
T2 sequence (P08581 956-1390 limits assumed): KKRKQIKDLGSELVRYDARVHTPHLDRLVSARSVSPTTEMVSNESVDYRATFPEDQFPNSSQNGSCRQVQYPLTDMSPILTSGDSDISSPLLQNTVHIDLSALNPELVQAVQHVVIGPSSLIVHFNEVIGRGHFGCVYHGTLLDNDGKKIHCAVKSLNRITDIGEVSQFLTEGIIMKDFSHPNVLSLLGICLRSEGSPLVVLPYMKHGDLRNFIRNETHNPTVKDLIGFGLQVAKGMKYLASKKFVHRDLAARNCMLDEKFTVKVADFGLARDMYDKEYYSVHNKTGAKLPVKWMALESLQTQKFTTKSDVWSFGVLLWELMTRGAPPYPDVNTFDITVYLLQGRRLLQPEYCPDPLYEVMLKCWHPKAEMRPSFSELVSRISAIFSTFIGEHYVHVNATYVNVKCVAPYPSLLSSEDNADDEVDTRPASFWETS

Regarding `CN1Cc2cc(Nc3ncc(Cl)c(Nc4ccccc4-c4cc[nH]n4)n3)ccc2CCC1=O` [Example 1804, 8-{5-Chloro-4-[2-(1H-pyrazol-3-yl)-phenylamino]-pyrimidin-2-ylamino}-2-methyl-1,2,4,5-tetrahydro-benzo[c]azepin-3-one], the IC50 in test [1] (setting [3]) is below 0.1 µM; in test [2] (setting [4]), 0.1 to 1 µM.
In the case of `COc1c(Nc2ncc(Cl)c(Nc3ccccc3S(=O)(=O)N(C)C)n2)ccc2c1CCCC(N1CCOCC1)C2` (centres unmarked) [Example 944, 2-[5-Chloro-2-(1-methoxy-6-morpholin-4-yl-6,7,8,9-tetrahydro-5H-benzocyclohepten-2-ylamino)-pyrimidin-4-ylamino]-N,N-dimethyl-benzenesulfonamide], the IC50 in test [1] (setting [5]) was below 0.1 µM; in test [2] (setting [6]) it was above 10 µM.
Regarding `CNC(=O)c1cccc(F)c1Nc1nc(Nc2ccc3c(c2)CCC(=O)NC3(C)C)ncc1Cl` [Example 1826, 2-(5-Chloro-2-(1,1-dimethyl-3-oxo-2,3,4,5-tetrahydro-1H-benzo[c]azepin-7-ylamino)pyrimidin-4-ylamino)-3-fluoro-N-methylbenzamide], the IC50 in test [1] (setting [3]) and in test [2] (setting [4]) was 1 to 10 µM in each case.
As for `COc1cc2c(cc1Nc1ncc(Cl)c(Nc3ccc(N4CCN(C)CC4)c(C)c3)n1)CCN(CC(C)(F)F)CC2` [Example 779, 5-Chloro-N*2*-[3-(2,2-difluoro-propyl)-8-methoxy-2,3,4,5-tetrahydro-1H-benzo[d]azepin-7-yl]-N*4*-[3-methyl-4-(4-methyl-piperazin-1-yl)-phenyl]-pyrimidine-2,4-diamine], the figures for the IC50 in test [1] (setting [5]) and in test [2] (setting [6]) were below 0.1 µM and above 10 µM, respectively.
For the molecule `CNC(=O)c1ccccc1Nc1nc(Nc2ccc(OC)c3c2N(C)C(=O)CCC3)ncc1Cl` [Example 123, 2-[5-Chloro-2-(6-methoxy-1-methyl-2-oxo-2,3,4,5-tetrahydro-1H-benzo[b]azepin-9-ylamino)-pyrimidin-4-ylamino]-N-methyl-benzamide], the IC50 was 0.1 to 1 µM in test [1] (setting [7]) and above 10 µM in test [2] (setting [8]).
For `CNC(=O)c1ccc2c(c1Nc1nc(Nc3ccc4c(c3)NC(=O)CCC4(C)C)ncc1Cl)OCO2` [Example 1481, 4-[5-Chloro-2-(5,5-dimethyl-2-oxo-2,3,4,5-tetrahydro-1H-benzo[b]azepin-8-ylamino)-pyrimidin-4-ylamino]-benzo[1,3]dioxole-5-carboxylic acid methyl amide], the IC50 in test [1] (setting [3]) and in test [2] (setting [4]) was 0.1 to 1 µM throughout.
As to `CNC(=O)c1ccsc1Nc1nc(Nc2ccc3c(c2)NC(=O)CCC3(C)C)ncc1Cl` [Example 1486, 2-[5-Chloro-2-(5,5-dimethyl-2-oxo-2,3,4,5-tetrahydro-1H-benzo[b]azepin-8-ylamino)-pyrimidin-4-ylamino]-thiophene-3-carboxylic acid methyl amide], the IC50 in test [1] (setting [3]) and in test [2] (setting [4]) was 1 to 10 µM throughout.
For `CNC(=O)c1cccc(Nc2nc(Nc3ccc4c(c3)C(C)(C)CCC(=O)N4)ncc2Cl)c1` [Example 672, 3-[5-Chloro-2-(5,5-dimethyl-2-oxo-2,3,4,5-tetrahydro-1H-benzo[b]azepin-7-ylamino)-pyrimidin-4-ylamino]-N-methyl-benzamide], the IC50 was in the range of 0.1 to 1 µM in test [1] (setting [5]) and 1 to 10 µM in test [2] (setting [6]).
Take `COc1c(Nc2ncc(Cl)c(Nc3ccccc3S(=O)(=O)N(C)C)n2)ccc2c1CCC(N1CCOCC1)CC2` (centres unmarked) [Example 889, 2-[5-Chloro-2-(1-methoxy-7-morpholin-4-yl-6,7,8,9-tetrahydro-5H-benzocyclohepten-2-ylamino)-pyrimidin-4-ylamino]-N,N-dimethyl-benzenesulfonamide]: the IC50 in test [1] (setting [5]) is below 0.1 µM; in test [2] (setting [6]) it was 1 to 10 µM.
Take `COc1cc2c(cc1Nc1ncc(Cl)c(Nc3ccc(N4CCOCC4)cc3OC)n1)CCN(CCNC(C)=O)CC2` [Example 257, N-(2-{7-[5-Chloro-4-(2-methoxy-4-morpholin-4-yl-phenylamino)-pyrimidin-2-ylamino]-8-methoxy-1,2,4,5-tetrahydro-benzo[d]azepin-3-yl}-ethyl)-acetamide]: the IC50 in test [1] (setting [7]) is below 0.1 µM; in test [2] (setting [8]), above 10 µM.
